Assay: Human HepG2 cell viability assay in 384 well format
Assay type: toxicity, cell-based
Set-up: dose 125 nL, time 70.5 hour; concentration not given beside the values
Settings: HepG2 cells, read-out: Inhibition

With `CC(CC(=O)NS(C)(=O)=O)C1CCCCC1` (centres undefined) as the compound, how does the cytotoxicity at 70.5 h read?
The cytotoxicity at 70.5 h was -13.9%.

With `CCSc1ccc(C(=O)N2CCCCC2C(=O)NC(C)(C)C)cn1` (centres undefined) as the compound, how does the cytotoxicity at 70.5 h read?
The cytotoxicity at 70.5 h was -7.45%.

For `CCc1cc(NC(=O)C2CCCN(C(=O)NCC(C)C)C2)[nH]n1` (centres undefined), which cytotoxicity at 70.5 h is on record?
The cytotoxicity at 70.5 h was -17.1%.

For `CCc1cc(NC(=O)C2CCCN(C(=O)c3ccncc3)C2)[nH]n1` (centres undefined), which cytotoxicity at 70.5 h is on record?
Its cytotoxicity at 70.5 h is -10.6%.

Which cytotoxicity at 70.5 h does the source give for `COc1ccc(-n2ccc(C(=O)N(C)C(C)C3(C)CC3)n2)cc1` (centres undefined) here?
Its cytotoxicity at 70.5 h is 21.1%.

With `COCC(O)CNC(=O)Nc1c(F)cc(F)cc1-c1ccccc1` (centres undefined) as the compound, how does the cytotoxicity at 70.5 h read?
The cytotoxicity at 70.5 h was -11.2%.

Which cytotoxicity at 70.5 h does the source give for `O=C(O)CCN(Cc1ccc(F)c(F)c1)C(=O)C1CC1` here?
Its cytotoxicity at 70.5 h is -11.3%.

For `Cc1cc(F)ccc1-n1cc(O)c(C(=O)NCC2(O)CCC2)n1`, which cytotoxicity at 70.5 h is on record?
The cytotoxicity at 70.5 h was 28.4%.

With `COCCCN(C)C(=O)c1cccc(Nc2cnccn2)c1` as the compound, how does the cytotoxicity at 70.5 h read?
Its cytotoxicity at 70.5 h is 24.1%.

For `Cc1noc(CCCC(=O)N(CCC(=O)O)Cc2ccc(F)c(F)c2)n1`, which cytotoxicity at 70.5 h is on record?
Its cytotoxicity at 70.5 h is -3.72%.

For `Cc1cc(N2CCCC2Cn2nc(C)cc2C)n2ncnc2n1` (centres undefined), which cytotoxicity at 70.5 h is on record?
Its cytotoxicity at 70.5 h is 29%.

With `COc1ccc(NC(=O)CSc2nc(C)c(C)c(C)c2C#N)cn1` as the compound, how does the cytotoxicity at 70.5 h read?
Its cytotoxicity at 70.5 h is -2.39%.

With `COc1ccc(C(C)NC(=O)NCCNc2ccccn2)c(OC)c1` (centres undefined) as the compound, how does the cytotoxicity at 70.5 h read?
The cytotoxicity at 70.5 h was 27.8%.

For `COc1cc(C)nc(N2CCN(C(C)c3nc(C4CC4)no3)CC2)n1` (centres undefined), which cytotoxicity at 70.5 h is on record?
The cytotoxicity at 70.5 h was -10.4%.

Which cytotoxicity at 70.5 h does the source give for `Cc1cc(N2CCCCC2Cn2nc(C)cc2C)n2ncnc2n1` (centres undefined) here?
The cytotoxicity at 70.5 h was -4.18%.

Which cytotoxicity at 70.5 h does the source give for `COc1ccc(C(C)NC(=O)NCCc2ccc(C)nc2)c(OC)c1` (centres undefined) here?
Its cytotoxicity at 70.5 h is 24%.

With `NC(=O)CCC1CCCN(c2ccc3c(Cl)ccnc3c2F)C1` (centres undefined) as the compound, how does the cytotoxicity at 70.5 h read?
Its cytotoxicity at 70.5 h is -6.43%.

Which cytotoxicity at 70.5 h does the source give for `COc1ccc(S(=O)(=O)N2CCC(OCc3ccccn3)C2)cc1Br` (centres undefined) here?
Its cytotoxicity at 70.5 h is -9.24%.

With `CC(Cn1cccn1)NC(=O)N(C)Cc1cnn(C)c1` (centres undefined) as the compound, how does the cytotoxicity at 70.5 h read?
The cytotoxicity at 70.5 h was -7.21%.

Which cytotoxicity at 70.5 h does the source give for `CCCNC(c1cccnc1)c1ccc(F)cc1F` (centres undefined) here?
Its cytotoxicity at 70.5 h is 42.9%.

For `CCNC(c1ccc(F)cc1)c1cccnc1` (centres undefined), which cytotoxicity at 70.5 h is on record?
Its cytotoxicity at 70.5 h is -19.7%.

For `CN(Cc1cnn(C)c1)C(CO)c1cccc(Br)c1` (centres undefined), which cytotoxicity at 70.5 h is on record?
Its cytotoxicity at 70.5 h is -16.5%.

For `CN(Cc1cnn(C)c1)C(=O)c1ccc(Cl)c(N2CCNC2=O)c1`, which cytotoxicity at 70.5 h is on record?
Its cytotoxicity at 70.5 h is -22.2%.

For `Cc1oc(-c2ccsc2)nc1CN1CCCC(c2ccnn2C)C1` (centres undefined), which cytotoxicity at 70.5 h is on record?
Its cytotoxicity at 70.5 h is -23.6%.

With `Cc1cc(CS(=O)(=O)C(C)C(=O)N(C)c2ccccc2)on1` (centres undefined) as the compound, how does the cytotoxicity at 70.5 h read?
Its cytotoxicity at 70.5 h is -28.7%.

For `CCCNC(=O)c1cccc(CNCc2csc(CC)n2)c1`, which cytotoxicity at 70.5 h is on record?
The cytotoxicity at 70.5 h was -106%.

Which cytotoxicity at 70.5 h does the source give for `CCCNC(=O)c1cccc(CNCc2csc(C(C)C)n2)c1` here?
The cytotoxicity at 70.5 h was -78.5%.

Which cytotoxicity at 70.5 h does the source give for `CCS(=O)(=O)NC(CCSC)C(=O)Nc1cc(F)ccc1C` (centres undefined) here?
Its cytotoxicity at 70.5 h is -36.1%.

Which cytotoxicity at 70.5 h does the source give for `Cc1ccc(C(NCC(=O)N2CCNC(=O)C2)C(F)(F)F)cc1` (centres undefined) here?
The cytotoxicity at 70.5 h was -113%.

Which cytotoxicity at 70.5 h does the source give for `CC(NC(=O)Nc1ccc(-n2cncn2)cc1)C(=O)NC(C)(C)C` (centres undefined) here?
Its cytotoxicity at 70.5 h is -29.6%.

Which cytotoxicity at 70.5 h does the source give for `CCC(C)NC(=O)c1cccc(CNCc2csc(C(C)C)n2)c1` (centres undefined) here?
The cytotoxicity at 70.5 h was -89.9%.

With `O=C(CN(CC(O)c1ccc(F)cc1)C1CC1)NCc1cccs1` (centres undefined) as the compound, how does the cytotoxicity at 70.5 h read?
Its cytotoxicity at 70.5 h is -114%.

For `CNS(=O)(=O)c1ccc(CNC(=O)N(CC(C)C)C(C)C)cc1`, which cytotoxicity at 70.5 h is on record?
Its cytotoxicity at 70.5 h is -96.5%.

With `CCN(C(=O)C(C)S(=O)(=O)Cc1nc(C)no1)c1ccccc1` (centres undefined) as the compound, how does the cytotoxicity at 70.5 h read?
The cytotoxicity at 70.5 h was -96.7%.

For `COc1ccc(NC(C)c2nnnn2-c2ccccc2)cn1` (centres undefined), which cytotoxicity at 70.5 h is on record?
Its cytotoxicity at 70.5 h is -96.1%.

Which cytotoxicity at 70.5 h does the source give for `COc1ccc(NC(C)c2nnnn2-c2ccccc2)cc1F` (centres undefined) here?
The cytotoxicity at 70.5 h was -95.4%.

With `CCNc1nc(C(=O)N(C)Cc2nc(CC)no2)cs1` as the compound, how does the cytotoxicity at 70.5 h read?
The cytotoxicity at 70.5 h was -109%.

Which cytotoxicity at 70.5 h does the source give for `NC(=O)CCSc1ccccc1NCc1ccc(Cl)s1` here?
The cytotoxicity at 70.5 h was -95%.

For `CC(NC(=O)CCC(C)(C)C)C(=O)Nc1ccc(-n2cncn2)cc1` (centres undefined), which cytotoxicity at 70.5 h is on record?
The cytotoxicity at 70.5 h was -24.9%.

With `CC(C)(C)c1nc(CNc2ccccc2SCCC(N)=O)cs1` as the compound, how does the cytotoxicity at 70.5 h read?
The cytotoxicity at 70.5 h was -107%.

Which cytotoxicity at 70.5 h does the source give for `CCC(C)(C)CC(=O)NC(C)C(=O)Nc1ccc(-n2cncn2)cc1` (centres undefined) here?
The cytotoxicity at 70.5 h was -81.3%.

For `CC(C)CCS(=O)(=O)N1CCCC(c2nncn2C(C)C)C1` (centres undefined), which cytotoxicity at 70.5 h is on record?
The cytotoxicity at 70.5 h was -33.9%.

Which cytotoxicity at 70.5 h does the source give for `c1ccc(CNc2ccccc2N2CCCC2)nc1` here?
The cytotoxicity at 70.5 h was -18.2%.

Which cytotoxicity at 70.5 h does the source give for `CC(C)NC(=O)CNC(C)c1c(F)cccc1Cl` (centres undefined) here?
The cytotoxicity at 70.5 h was -79.9%.

Which cytotoxicity at 70.5 h does the source give for `CCOCCN1CCN(CC(O)c2ccc(OC)cc2)CC1` (centres undefined) here?
Its cytotoxicity at 70.5 h is 36.2%.

For `CSCc1cc(C(=O)NC2(C#N)CCSC2)ccc1F` (centres undefined), which cytotoxicity at 70.5 h is on record?
The cytotoxicity at 70.5 h was -8.71%.

With `CN1CCN(c2ccc(Br)cc2NC(=O)c2ccco2)CC1` as the compound, how does the cytotoxicity at 70.5 h read?
Its cytotoxicity at 70.5 h is 2.12%.

For `CCN(C(=O)c1cc(C)oc1C)C1CC1`, which cytotoxicity at 70.5 h is on record?
Its cytotoxicity at 70.5 h is -4.05%.

For `CC(C)N(CCCNC(=O)C1CCOCC1)S(C)(=O)=O`, which cytotoxicity at 70.5 h is on record?
The cytotoxicity at 70.5 h was -5.89%.

For `CC1(c2ccc(Br)cc2)CC(=O)N(CCC(N)=O)C1=O` (centres undefined), which cytotoxicity at 70.5 h is on record?
The cytotoxicity at 70.5 h was -6.18%.

For `CC(C)N(CCCNC(=O)C1CCCN(C(N)=O)C1)S(C)(=O)=O` (centres undefined), which cytotoxicity at 70.5 h is on record?
The cytotoxicity at 70.5 h was -5.29%.

For `CCN(C(=O)Nc1cc(C)on1)C(C)c1cccc(O)c1` (centres undefined), which cytotoxicity at 70.5 h is on record?
The cytotoxicity at 70.5 h was -9.79%.

For `CCOCCN1CCN(CC(O)c2ccc(C)c(C)c2)CC1` (centres undefined), which cytotoxicity at 70.5 h is on record?
The cytotoxicity at 70.5 h was -10.1%.

Which cytotoxicity at 70.5 h does the source give for `CC(CO)NC(=O)c1ccc(NCc2ccc(F)c(F)c2)cc1` (centres undefined) here?
The cytotoxicity at 70.5 h was -0.038%.

Which cytotoxicity at 70.5 h does the source give for `COCCNC(=O)Cn1cc(NC(=O)c2cc(Cl)c(Cl)n2C)cn1` here?
Its cytotoxicity at 70.5 h is 0.862%.

With `COCCNC(=O)Cn1cc(NC(=O)c2ccc(C(C)(C)C)cc2)cn1` as the compound, how does the cytotoxicity at 70.5 h read?
Its cytotoxicity at 70.5 h is 33.3%.

With `CCOc1ccc(C(F)(F)F)cc1NC(=O)NCc1noc(C)n1` as the compound, how does the cytotoxicity at 70.5 h read?
Its cytotoxicity at 70.5 h is -8.58%.

For `N#CC1(NC(=O)c2ccc(F)c(Br)c2)CCSC1` (centres undefined), which cytotoxicity at 70.5 h is on record?
The cytotoxicity at 70.5 h was -8.42%.

With `O=C(Nc1cccc(OCC(F)F)n1)c1ccncc1` as the compound, how does the cytotoxicity at 70.5 h read?
Its cytotoxicity at 70.5 h is -8.53%.

— ChEMBL document CHEMBL3507680, “University of Dundee, Gates Library screen for HepG2 cell viability”
